Results taken from PubChem BioAssay AID200 (DTP/NCI, 2004).
Values joined by “and” are separate entries in the source; they are usually repeats but may differ in a detail not shown here. Equal values may be shown once. Inconclusive results and toxic doses are left out.

System: B6C3F1 mice, B16 melanoma ip, median survival T/C
Experiment: NCI In Vivo Anticancer Drug Screen. Data for tumor model B16 Melanoma (intraperitoneal) in B6C3F1 mice
Conditions: endpoint: median survival time, schedule: Q01DX009 (ip), higher = longer survival
Outline: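 Tumor-bearing mice received test compound; a separate group got vehicle only. Survival was then compared, with results reported as treated over control.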

SMILES: COC(CCC(C)C1OC23CC(OC(=O)CC(C(C)O)OC(=O)CC(O)(O2)C(C)CC3(C)C)C1C)c1cccc(O)c1 (configuration not stated)
- T/C (dose: 12.5 micrograms/kg/injection, vehicle: saline + Tween-80 + alcohol): 96 % of control
- T/C (dose: 25.0 micrograms/kg/injection, vehicle: saline + Tween-80 + alcohol): 97 % of control
- T/C (dose: 50.0 micrograms/kg/injection, vehicle: saline + Tween-80 + alcohol): 104 % of control
- T/C (dose: 100.0 micrograms/kg/injection, vehicle: saline + Tween-80 + alcohol): 102 % of control

SMILES: CCCCCC(O)C1C(=O)OC(C)C(O)/C=C/C=C/C=C/C=C/C=C(\C)C(O)C(O)C(O)CC(O)CC(O)CC(O)CC(O)CC1O (configuration not stated)
- T/C (dose: 0.5 mg/kg/injection, vehicle: other): 98 % of control
- T/C (dose: 1.0 mg/kg/injection, vehicle: other): 119 % of control
- T/C (dose: 1.56 mg/kg/injection, vehicle: saline): 102 % of control
- T/C (dose: 3.12 mg/kg/injection, vehicle: saline): 88 % of control
- T/C (dose: 4.0 mg/kg/injection, vehicle: other): 169 % of control
- T/C (dose: 8.0 mg/kg/injection, vehicle: other): 166 % of control

SMILES: Nc1nc(-c2ccc(Cl)c([N+](=O)[O-])c2)c(Br)c(=O)[nH]1
- T/C (dose: 18.25 mg/kg/injection, vehicle: saline with Tween-80): 121 % of control
- T/C (dose: 36.5 mg/kg/injection, vehicle: saline with Tween-80): 118 % of control
- T/C (dose: 73.0 mg/kg/injection, vehicle: saline with Tween-80): 100 % of control
- T/C (dose: 146.0 mg/kg/injection, vehicle: saline with Tween-80): 100 % of control

SMILES: O=CC(O)C(O)C(O)C(O)C(=O)O.[NH-]C1CCCCC1[NH-].[Pt+2] (configuration not stated)
- T/C (dose: 0.19 mg/kg/injection, vehicle: saline): 108 % of control
- T/C (dose: 1.5 mg/kg/injection, vehicle: saline): 177 % of control
- T/C (dose: 3.0 mg/kg/injection, vehicle: saline): 187 % of control

SMILES: O=C(O)CP(=O)(O)O
- T/C (dose: 12.5 mg/kg/injection, vehicle: saline): 100 % of control
- T/C (dose: 25.0 mg/kg/injection, vehicle: saline): 102 % of control and 107 % of control
- T/C (dose: 50.0 mg/kg/injection, vehicle: saline): 102 % of control and 106 % of control
- T/C (dose: 100.0 mg/kg/injection, vehicle: saline): 118 % of control and 121 % of control
- T/C (dose: 200.0 mg/kg/injection, vehicle: saline): 164 % of control
- T/C (dose: 400.0 mg/kg/injection, vehicle: saline): 189 % of control and 227 % of control
- T/C (dose: 800.0 mg/kg/injection, vehicle: saline): 206 % of control and 255 % of control

SMILES: CC(=S)NC(O)C(=O)c1ccccc1 (configuration not stated)
- T/C (dose: 12.5 mg/kg/injection, vehicle: distilled water + Tween-80): 104 % of control
- T/C (dose: 12.5 mg/kg/injection, vehicle: saline with Tween-80): 95 % of control
- T/C (dose: 25.0 mg/kg/injection, vehicle: distilled water + Tween-80): 107 % of control
- T/C (dose: 25.0 mg/kg/injection, vehicle: saline with Tween-80): 94 % of control
- T/C (dose: 50.0 mg/kg/injection, vehicle: distilled water + Tween-80): 98 % of control
- T/C (dose: 50.0 mg/kg/injection, vehicle: saline with Tween-80): 93 % of control
- T/C (dose: 100.0 mg/kg/injection, vehicle: distilled water + Tween-80): 113 % of control
- T/C (dose: 100.0 mg/kg/injection, vehicle: saline with Tween-80): 93 % of control
- T/C (dose: 200.0 mg/kg/injection, vehicle: saline with Tween-80): 89 % of control

SMILES: Nc1ncnc2c1ncn2C1OC(COP(=O)(O)OC2C(O)C(COP(=O)(O)OC3C(O)C(COP(=O)(O)OP(=O)(O)OP(=O)(O)O)OC3n3cnc4c(N)ncnc43)OC2n2cnc3c(N)ncnc32)C(O)C1O (configuration not stated)
- T/C (dose: 0.12 mg/kg/injection, vehicle: distilled water + Tween-80 + alcohol): 88 % of control
- T/C (dose: 0.25 mg/kg/injection, vehicle: distilled water + Tween-80 + alcohol): 91 % of control
- T/C (dose: 0.5 mg/kg/injection, vehicle: distilled water + Tween-80 + alcohol): 94 % of control
- T/C (dose: 1.0 mg/kg/injection, vehicle: distilled water + Tween-80 + alcohol): 98 % of control
